Columns and labels:
[1] = Visual clarity of PTSsol formulations on storage; assay type: physicochemical; conditions: for Time formulation remained clear and stable: PTSsol, stored at room temperature or refrigerated at 4° C., 1% cyclosporine, up to 2.5% brinzolamide; for Time formulation remained visibly clear without drug precipitating out: stored refrigerated, exemplary PTSsol, 1% and 2.5% brinzolamide, 1% cyclosporine A, 0.07% and 0.1% difluprednate
Protocol: (§1) Hydrophobic active agents that are difficult to formulate in aqueous compositions are typically formulated as emulsions or suspensions. […] Similarly, PTSsol for 0.5% celecoxib was prepared in 10% PTS121GH in PBS buffer at pH 7.4. […] Referring to FIGS. 2 and 3 the stability of 2.5% brinzolamide in 25% 1-0 GH polymer dispersion in PBS at pH 7.4 was analyzed over 8 weeks, using HPLC.
In this example, an artificial tear composition using PTSsol polymers was generated. PTS solutions are clear, bioadhesive, biocompatible, and biodegradable polymers ideal for sensitive medical applications, such as preparing artificial tears for relieving eye discomfort caused by dry eye. […] Additional excipients can be added to the formulation as desired.

[2] = Dissolving hydrophobic active agents in PTSsol as clear aqueous liquids; assay type: physicochemical
Protocol: as §1

| Time formulation remained clear and stable [1] | Time formulation remained clear and stable ([1]; listed as BRZ) | Time formulation remained visibly clear without drug precipitating out [1] | Drug concentration dissolved as clear liquid ([2]; in 10% PTS1-0GH PTSsol) | Drug concentration dissolved as very clear liquid ([2]; in 10% of 121GH polymer) | Dissolution in hydrophilic polymer ([2]; directly in PTS121 GH polymer) | Drug concentration of stable aqueous formulation ([2]; first dissolved in gelling polymer 113 GH or 122 GH, then mixed with PTS121 GH) | SMILES |
| --- | --- | --- | --- | --- | --- | --- | --- |
| 8 weeks | ≥ 8 weeks | 28 days | up to 2.5% | 2.5% | – | – | CCN[C@H]1CN(CCCOC)S(=O)(=O)c2sc(S(N)(=O)=O)cc21 [brinzolamide] |
| – | – | 8 days | – | – | does not readily dissolve | ≤ 0.1% | CCCC(=O)O[C@]1(C(=O)COC(C)=O)CC[C@H]2[C@@H]3C[C@H](F)C4=CC(=O)C=C[C@]4(C)[C@@]3(F)[C@@H](O)C[C@@]21C [difluprednate] |

Reference: US10207003B2, “Liquid pentablock co-polymer formulations for sustained delivery of therapeutics” (i-novion, Inc., priority 2016, dated 2019)
